Measured values taken from US9597406B2, “Controlled release method for a pharmaceutical composition composed of chelating complex micelles” (Original BioMedicals Co., Ltd, priority 2012, dated 2017).

Tests used:
[1] = MTT cell viability test of doxorubicin CCM (FePD) with and without deferoxamine; assay type: cell-based, mouse; conditions: mouse, BNLCL.2 mouse embryonic liver cells, 2 h incubation, BNLCL.2 cells
Method: (§1) The cell viability test of doxorubicin CCM (FePD) was examined with and without adding metal chelator deferoxamine. MTT (3-(4,5-cimethylthiazol-2-yl)-2,5-diphenyl tetrazolium bromide) assay was used to assess the cytotoxicity of cells treated with FePD and deferoxamine.
(§2) The mouse embryonic liver cells (BNLCL.2) (100 μL) were inoculated onto a 96-well plate with density 1×10^5 cells/mL and cultured for 24 hr at 37° C. with 5% CO2 before subjecting to the test. After removal of supernatant, 100 μL of each sample was added to the cells and incubated for 2 hours (Table 1). The samples were sterilized by using 0.22 μm filters prior to treating the cells. The plate was then washed with PBS (phosphate buffered saline) and incubated with fresh medium for 24 hours. After removal of supernatant and washed with PBS, 10 μL MTT solution was added to the cells and incubated for 4 hours. The absorbance at 570 nm was measured (BioTek, Synergy TM2, USA).

[2] = system: mouse embryonic liver cells (BNLCL.2); assay: as above; assay type: cell-based; conditions: 4 μM, 2 h incubation, then 24 h fresh medium, BNLCL.2 cells, 4 µM
Method: as §1, §2

Row | Structure (SMILES) | viability at 2 h, 13.5 µM ([1]; 13.5 μM, then 24 h fresh medium) [%] | Cell viability (%) [2] [%] | viability at 2 h, 4 μM ([1]; 4 μM, then 24 h fresh medium) [%] | viability at 2 h, 4 μM ([1]; Group G: 4 μM + deferoxamine (13.5 μM)) [%]
1 | CC(=O)N(O)CCCCCNC(=O)CCC(=O)N(O)CCCCCNC(=O)CCC(=O)N(O)CCCCCN [deferoxamine] | 104 | – | – | –
2 | COc1cccc2c1C(=O)c1c(O)c3c(c(O)c1C2=O)C[C@@](O)(C(=O)CO)C[C@@H]3O[C@H]1C[C@H](N)[C@H](O)[C@H](C)O1 [doxorubicin] | – | 74.7292 | 74.7 | 78.3
